{
  "source": "patent US20070281925A1",
  "about": "“USE OF SERTINDOLE FOR THE PREVENTIVE TREATMENT OF SUICIDAL BEHAVIOUR” (H. Lundbeck A/S, priority 2006, published 2007)",
  "key": {"[1]": {"system": "patient population of clinical trials of atypical antipsychotics", "settings": "between sertindole, olanzapine and risperidone; cited from earlier work"}, "[2]": {"system": "A9 dopamine neurons (the nigrostriatal pathway)", "settings": "cited from earlier work"}, "[3]": {"system": "A10 neurons (the mesolimbic and mesocortical pathways)", "settings": "cited from earlier work"}, "dopamine D2 receptors": {"target": "dopamine D2 receptors (Homo sapiens, UniProt P14416)", "sequence (P14416 whole entry)": "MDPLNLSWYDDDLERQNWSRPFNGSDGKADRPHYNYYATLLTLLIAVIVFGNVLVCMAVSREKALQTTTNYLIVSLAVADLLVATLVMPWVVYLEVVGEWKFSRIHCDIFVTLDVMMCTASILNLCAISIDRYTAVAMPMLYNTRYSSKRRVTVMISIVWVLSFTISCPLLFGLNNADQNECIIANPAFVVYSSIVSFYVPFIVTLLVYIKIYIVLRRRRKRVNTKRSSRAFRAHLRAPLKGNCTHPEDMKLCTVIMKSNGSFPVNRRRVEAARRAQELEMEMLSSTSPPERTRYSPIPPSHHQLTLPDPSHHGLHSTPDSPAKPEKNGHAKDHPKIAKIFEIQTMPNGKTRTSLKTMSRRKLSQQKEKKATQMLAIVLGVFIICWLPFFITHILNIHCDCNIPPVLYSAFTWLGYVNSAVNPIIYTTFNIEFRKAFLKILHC", "settings": "cited from earlier work"}, "muscarinic receptors": {"system": "muscarinic receptors", "settings": "cited from earlier work"}, "α1-adrenergic receptors": {"system": "α1-adrenergic receptors", "settings": "cited from earlier work"}, "α2-adrenergic receptors": {"system": "α2-adrenergic receptors", "settings": "cited from earlier work"}, "[4]": {"system": "patients with schizophrenia", "experiment": "Twelve-month open-label study of sertindole: time to sustained response", "format": "in vivo, human", "settings": "4-24 mg once daily for up to one year; 358 patients", "source_text": "These findings are further corroborated by an exploratory analysis of clinical data obtained from a twelve-month open-label study ([…] et al., “Identification of Potential Predictors of Sertindole Response in Patients with Schizophrenia”, to be published). In line with the emerging consensus criteria for response to antipsychotic treatment in schizophrenia ([…] et al., Am J Psychiatry 162:441-449, March 2005), the objective of this exploratory analysis is to identify potential predictors of response to sertindole in patients with schizophrenia. The study assessed the safety and efficacy of sertindole doses (4-24 mg) administered once daily for up to one year in US patients with schizophrenia."}, "[5]": {"settings": "compared with haloperidol, fluphenazine and chlorpromazine; cited from earlier work"}, "histaminergic receptors": {"system": "histaminergic receptors", "settings": "cited from earlier work"}, "[6]": {"system": "patients with schizophrenia", "experiment": "Sertindole Cohort Prospective (SCoP) study: fatal or non-fatal suicide attempts, sertindole vs risperidone", "format": "in vivo, human", "settings": "for Hazard Ratio SERT as compared to RISP, committing or attempting suicide: Cox proportional hazards model adjusting for age, gender, history of suicide attempt, duration of schizophrenia; for Committed or attempted suicide (rate/100 PYE): WRT period plus 30 days; for Hazard ratio SERT/RISP, committed or attempted suicide: log-rank test, WRT plus 30 days", "source_text": "(§1) The Sertindole Cohort Prospective (SCoP) study was designed as a multi-national, multi-centre, prospective, randomized, open-label, two parallel-group, active-controlled study in human subjects with schizophrenia. The objective of the study is to compare the safety of sertindole with the safety of another standard antipsychotic drug (in this case risperidone) under normal conditions of use. In addition, the study collects information on fatal or non-fatal suicide attempts. The study was initiated in 2002 and is still ongoing.\n(§2) To ensure that the study population is representative of patients with schizophrenia, only a limited number of selection criteria are imposed. In particular, patients are required to fulfil the criteria specified in the SmPCs (Core Summary of Product Characteristics) for both sertindole and risperidone; they are not to have received either sertindole or risperidone as their treatment immediately before entering the study, and they require treatment with but a single anti-schizophrenia drug product.\nas §1, with “is” for “was designed as”, “multinational,” for “multi-national,”, “patients” for “human subjects”\nThe data in the study are reported for different periods. The Only-Randomized-Treatment-Period (ORT) covers the time the patient is receiving antipsychotic monotherapy with the randomized trial medication. However, patients can also be treated in combination with another antipsychotic if this is clinically necessary. When the patient receives an additional antipsychotic, the patient is censored and the data are reported for the Whole-Randomized-Treatment period (WRT). The primary period for reporting is the so-called Whole-Randomized-Treatment+30 period (WRT+30), which covers the time during which the patient receives randomized treatment plus 30 days after treatment discontinuation. Finally, the period during which the patient is followed even after the treatment has been stopped is called the Whole-Follow-up-Period (WFP).\nas §2, with “fulfill” for “fulfil”, “SmPCs” for “SmPCs (Core Summary of Product Characteristics)”, “antipsychotic drug.” for “anti-schizophrenia drug product.”\nThroughout the treatment period patients are dosed according to the treatment recommendations in their respective SmPCs. […]\nRegarding attempted suicide, the analysis comprised only those events for which the investigators confirmed that the patients actually tried to commit suicide. Events such as intentional overdose and intentional self-injury were clarified by the investigators and were not included in the analysis unless the investigators confirmed that they were real suicide attempts. The included events were coded as ‘suicide attempt’ in the database.\nThe above definition of attempted suicide has the advantage of making it possible combine this event with completed suicide and to analyze the time until either event occurs. This can be done since all patients are randomised to start new treatment with either sertindole or risperidone.\nAll events occurring in the Whole Randomised Treatment (WRT) period plus 30 days were considered for analysis, up until the data cut-off. The WRT period is the period from start to stop of randomised treatment. The null hypothesis of equality of hazards between treatment groups was tested using the log-rank test. […]"}, "[7]": {"system": "serotonin 5-HT2 receptors", "settings": "cited from earlier work"}},
  "data": [
    {"compound": "Cc1cc2c(s1)Nc1ccccc1N=C2N1CCN(C)CC1", "note": "[olanzapine]", "values": [
      {"measurement": "Short-term (450 days) hazard functions (mortality)", "setting": "[1]", "value": "no obvious difference"}
    ]},
    {"compound": "O=C1NCCN1CCN1CCC(c2cn(-c3ccc(F)cc3)c3ccc(Cl)cc23)CC1", "note": "[sertindole]", "values": [
      {"measurement": "Short-term (450 days) hazard functions (mortality)", "setting": "[1]", "value": "no obvious difference"},
      {"measurement": "Depolarization inactivation in A9 dopamine neurons", "setting": "[2]", "value": "does not induce depolarization inactivation"},
      {"measurement": "Activity in A10 neurons", "setting": "[3]", "value": "retains activity"},
      {"measurement": "Affinity for dopamine D2 receptors", "setting": "dopamine D2 receptors", "value": "high affinity"},
      {"measurement": "Binding to muscarinic receptors", "setting": "muscarinic receptors", "value": "limited binding"},
      {"measurement": "Affinity for α1-adrenergic receptors", "setting": "α1-adrenergic receptors", "value": "high affinity"},
      {"measurement": "Binding to α2-adrenergic receptors", "setting": "α2-adrenergic receptors", "value": "limited binding"},
      {"measurement": "Patients achieving sustained response (CGI-S<=3 and CGI-I<=2, sustained at least 8 weeks)", "setting": "[4]", "value": 125, "unit": "patients"},
      {"measurement": "Adverse effects", "setting": "[5]", "value": "fewer adverse effects"},
      {"measurement": "Binding to histaminergic receptors", "setting": "histaminergic receptors", "value": "limited binding"},
      {"measurement": "Hazard Ratio SERT as compared to RISP, committing or attempting suicide", "setting": "[6]; as of Nov. 1, 2007", "value": "approximately 0.6"},
      {"measurement": "Hazard Ratio SERT as compared to RISP, committing or attempting suicide", "setting": "[6]; as of Nov. 1, 2007, listed as SERT", "value": 0.614},
      {"measurement": "Committed or attempted suicide (rate/100 PYE)", "setting": "[6]; as of Nov. 1, 2006", "value": 0.85, "unit": "rate/100 PYE"},
      {"measurement": "Committed or attempted suicide (rate/100 PYE)", "setting": "[6]; as of Nov. 1, 2007", "value": 0.62, "unit": "rate/100 PYE"},
      {"measurement": "Hazard ratio SERT/RISP, committed or attempted suicide", "setting": "[6]; data cut-off 11.1 2007", "value": "approximately 0.7"},
      {"measurement": "Hazard ratio SERT/RISP, committed or attempted suicide", "setting": "[6]; data cut-off 11.1 2007, listed as SERT", "value": 0.69},
      {"measurement": "Hazard ratio SERT/RISP, committed or attempted suicide", "setting": "[6]; data up until 11 Jan. 2006", "value": "approximately 0.7"},
      {"measurement": "Hazard ratio SERT/RISP, committed or attempted suicide", "setting": "[6]; data up until 11 Jan. 2006, listed as SERT", "value": 0.72},
      {"measurement": "Incidence of suicide attempts (both fatal and non-fatal) in comparison with risperidone", "setting": "[6]; schizophrenic patients on maintenance dose sertindole therapy", "value": "reduced significantly"},
      {"measurement": "Affinity for serotonin 5-HT2 receptors", "setting": "[7]", "value": "high affinity"}
    ]},
    {"compound": "Cc1nc2n(c(=O)c1CCN1CCC(c3noc4cc(F)ccc34)CC1)CCCC2", "note": "[risperidone]", "values": [
      {"measurement": "Short-term (450 days) hazard functions (mortality)", "setting": "[1]", "value": "no obvious difference"},
      {"measurement": "Event rate in risperidone group relative to sertindole group (times higher)", "setting": "[6]; Cox proportional hazards model, data cut-off 11.1 2007", "value": "approximately 1.7 times"},
      {"measurement": "Committed or attempted suicide (rate/100 PYE)", "setting": "[6]; as of Nov. 1, 2006", "value": 1.15, "unit": "rate/100 PYE"},
      {"measurement": "Committed or attempted suicide (rate/100 PYE)", "setting": "[6]; as of Nov. 1, 2007", "value": 0.92, "unit": "rate/100 PYE"},
      {"measurement": "Event rate in risperidone group relative to sertindole group (times higher)", "setting": "[6]; data cut-off 11.1 2007, unadjusted", "value": "~1.5", "unit": "times"},
      {"measurement": "Event rate in risperidone group relative to sertindole group (times higher)", "setting": "[6]; data up until 11 Jan. 2006", "value": "~1.5", "unit": "times"}
    ]}
  ]
}
